The source of these data is PubChem BioAssay (NCI).

Several values for one entry are separate records, joined by “and”; a condition that tells them apart may be missing. Equal values may be shown once.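 Each compound was tested at five concentrations against cells in 96-well plates for 48 hours. GI50 = concentration required for 50% inhibition of growth. Definition used: TGI = concentration required for complete inhibition of growth.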 Bounds are passed on as bounds.

Some test systems named below: SN12C renal; T-47D breast; HT29 colon; RPMI-8226 leukemia; HOP-62 NSCLC; SNB-19 CNS; UACC-257 melanoma; MALME-3M melanoma; OVCAR-5 ovarian; SR leukemia.
Holding throughout (assay): DTP human tumour cell line panel, 48 h

Regarding `Cc1nnc2sc(N/N=C/c3ccccc3)nn12`, the TGI in the assay with SN12C renal, in the assay with T-47D breast, in the assay with HT29 colon, with RPMI-8226 leukemia, in the assay on HOP-62 NSCLC and in the assay on SNB-19 CNS was greater than 100 µM in each case. The TGI with UACC-257 melanoma, with MALME-3M melanoma and in the assay with OVCAR-5 ovarian was greater than 100 µM each time.
Consider `COC(=O)c1ccccc1CC(Cc1ccccc1)C(=O)OC` (configuration not stated), for which the TGI in the assay on SN12C renal, with HT29 colon, in the assay with RPMI-8226 leukemia, in the assay with HOP-62 NSCLC, with SNB-19 CNS and with SR leukemia was greater than 100 µM in each case. In addition, the TGI in the assay on UACC-257 melanoma, in the assay with MALME-3M melanoma and with OVCAR-5 ovarian was greater than 100 µM in each case.
Turning to `CC(=O)Nc1ccc(-c2nnc(SCC(=O)Nc3ccccc3C)o2)cc1`, the total growth inhibition concentration (TGI) in the assay on SN12C renal, in the assay on HT29 colon, in the assay on RPMI-8226 leukemia, in the assay on HOP-62 NSCLC, with SR leukemia and in the assay on UACC-257 melanoma was greater than 100 µM each time. Moreover, the TGI with MALME-3M melanoma and in the assay on OVCAR-5 ovarian was greater than 100 µM in each case.
As for `O=C1/C(=C/c2ccco2)NC(=S)N1CN1CCOCC1`, the TGI in the assay with SN12C renal, in the assay on HT29 colon, in the assay on RPMI-8226 leukemia, with HOP-62 NSCLC, with SNB-19 CNS and with SR leukemia was greater than 100 µM each time. The TGI in the assay with UACC-257 melanoma and with OVCAR-5 ovarian was greater than 100 µM each time.
As to `O=C(OCc1ccccc1)N1c2cc([N+](=O)[O-])ccc2C(=O)N2CCC[C@H]2C1O` (some centres not stated), the TGI in the assay on SN12C renal, in the assay on T-47D breast, with HT29 colon, with RPMI-8226 leukemia, in the assay with HOP-62 NSCLC and in the assay with SNB-19 CNS was greater than 100 µM in each case. For the same compound, the concentration for total growth inhibition (TGI) with SR leukemia, with UACC-257 melanoma and in the assay on OVCAR-5 ovarian was greater than 100 µM in each case.
As to `Cc1n(CC(=O)c2ccccc2)nc2sc(N)n[n+]12`, the TGI with SN12C renal, with T-47D breast, with HT29 colon, in the assay with RPMI-8226 leukemia, in the assay on HOP-62 NSCLC and with SNB-19 CNS was greater than 100 µM throughout. Also, the TGI in the assay on UACC-257 melanoma, with MALME-3M melanoma and in the assay with OVCAR-5 ovarian was greater than 100 µM each time.
Consider `CCC(C)C1(O)OC2CC3(C)OC(=CC3=O)/C(C)=C\C3OC(=O)C1(C)C32` (configuration not stated), for which the TGI in the assay with SN12C renal was 28.6 µM; with T-47D breast, 33.7 µM; in the assay with HT29 colon it was 34.3 µM; in the assay with RPMI-8226 leukemia, greater than 100 µM; in the assay with HOP-62 NSCLC, greater than 100 µM; in the assay with SNB-19 CNS, 77.5 µM. Further, the TGI in the assay with SR leukemia was 73.5 µM; in the assay on UACC-257 melanoma it was 45.7 µM; with OVCAR-5 ovarian it was greater than 100 µM.
On to `N#Cc1c(N2CCN(c3ccc([N+](=O)[O-])cc3)CC2)[n+](=O)c2ccc(Cl)cc2n1[O-]`, for which the TGI in the assay on SN12C renal was 3.05 µM; in the assay on HT29 colon, 7.31 µM; with SNB-19 CNS, greater than 32.8 µM; in the assay on UACC-257 melanoma, 8.21 µM; in the assay with MALME-3M melanoma, 6.31 µM; in the assay with OVCAR-5 ovarian, 29.1 µM.
Regarding `CC(C)CCC/C(CBr)=C(\Cl)CCl`, the TGI is 8.85 µM in the assay on SN12C renal; 5.97 µM with HT29 colon; 20.8 µM in the assay on HOP-62 NSCLC; 28.6 µM in the assay with SNB-19 CNS; 4.78 µM in the assay with UACC-257 melanoma; 7.88 µM in the assay with MALME-3M melanoma. The same compound showed a concentration for total growth inhibition (TGI) in the assay with OVCAR-5 ovarian of 29.1 µM.
In the case of `CN(C)CC(NC(NCS)C(=O)NCCNc1ccc(NCCNC(=O)C(NCS)NC(CN(C)C)OCCl)c2c1C(=O)c1c(O)ccc(O)c1C2=O)OCCl` (configuration not stated), the figures for the GI50 in the assay with SN12C renal, in the assay on HT29 colon and in the assay with OVCAR-5 ovarian were less than 0.001 µM, 0.228 µM and 0.713 µM, respectively. For the same compound, the TGI was 0.477 µM in the assay with SN12C renal; 1.62 µM with T-47D breast; 0.278 µM and 1.58 µM in the assay with HT29 colon; 0.03 µM in the assay on RPMI-8226 leukemia; 0.482 µM in the assay on HOP-62 NSCLC; 1.96 µM in the assay on SNB-19 CNS. Besides, the TGI in the assay on UACC-257 melanoma was 3.6 µM.
For the compound `CC(C)(NC1=NCCO1)c1ccccc1`, the TGI with SN12C renal, in the assay on T-47D breast, in the assay with HT29 colon, in the assay on RPMI-8226 leukemia, in the assay on HOP-62 NSCLC and in the assay on SNB-19 CNS was greater than 100 µM throughout. Besides, the TGI in the assay with UACC-257 melanoma, in the assay on MALME-3M melanoma and with OVCAR-5 ovarian was greater than 100 µM in each case.
In the case of `c1ccc(Nc2nnc(-c3nsc4ccccc34)o2)cc1`, the TGI in the assay on SN12C renal, in the assay with HT29 colon, in the assay with RPMI-8226 leukemia, with HOP-62 NSCLC, in the assay on SNB-19 CNS and in the assay on SR leukemia was greater than 100 µM throughout. Moreover, the TGI in the assay with UACC-257 melanoma and with OVCAR-5 ovarian was greater than 100 µM each time.
With `CN1CC2CC(C1)c1cccc(=O)n1C2` (configuration not stated), the TGI in the assay on SN12C renal, in the assay with T-47D breast, with HT29 colon, in the assay with HOP-62 NSCLC, in the assay with SNB-19 CNS and in the assay on UACC-257 melanoma was greater than 100 µM throughout. Moreover, the TGI with MALME-3M melanoma and in the assay on OVCAR-5 ovarian was greater than 100 µM in each case.
In the case of `OCCO[P+]1(OCCO)n2c3ccc2C(c2ccccc2)=C2C=CC(=N2)C(c2ccccc2)=c2ccc(n21)=C(c1ccccc1)C1=NC(=C3c2ccccc2)C=C1`, the TGI with SN12C renal was determined as 0.125 µM; in the assay on T-47D breast, 2.09 µM; with HT29 colon, 3.36 µM; in the assay with RPMI-8226 leukemia, 0.0657 µM; with HOP-62 NSCLC, 1.72 µM; in the assay on SNB-19 CNS, 1.96 µM. Further, the TGI in the assay on SR leukemia stood at 0.294 µM; with UACC-257 melanoma, 0.0545 µM; in the assay with OVCAR-5 ovarian, 1.28 µM.
For `COc1ccc(/C=C2\CN(C)Cc3c2[nH]c(=O)c(C#N)c3-c2ccc(OC)cc2)cc1`, the TGI is greater than 100 µM in the assay with SN12C renal; greater than 100 µM in the assay with T-47D breast; greater than 100 µM in the assay on HT29 colon; 71.6 µM in the assay with RPMI-8226 leukemia; greater than 100 µM in the assay with HOP-62 NSCLC; greater than 100 µM with SNB-19 CNS. Moreover, the TGI in the assay on UACC-257 melanoma, with MALME-3M melanoma and in the assay with OVCAR-5 ovarian was greater than 100 µM each time.
